Data published in patent US20250249051A1, “MICROBIOME COMPOSITION FOR IMPROVING MUSCLE STRENGTH USING HEAT-TREATED FERMENTED CULTURE COMPLEX OF LACTIPLANTIBACILLUS PLANTARUM KM2” (KOOKMINBIO, CORP., priority 2024, published 2025).
Marks after values point to notes of the source that are not given here.

How the values were obtained:
[1] = tested on: intestinal microflora; assay: Intestinal microflora analysis in animal model (shotgun metagenome sequencing); assay type: in vivo, mice; conditions: genus level, compared to the DEX group
Description: (§1) 7-week-old male C57BL/6J mice purchased from OrientBio were used as experimental animals. The environment of an animal breeding room was controlled at temperature of 21±1° C. with relative humidity of 40˜60% and light/dark cycles of 12 hours/day, and feed and drinking water were allowed to be consumed freely. This test was approved by the Institutional Animal Care and Use Committee in Kookmin University (KMU-2023-05) and carried out in accordance with the standard operating instructions. […] Feed ingestion amount and body weight were measured once every two weeks.
To identify the effect of the sample on the intestinal microbiota of the animal model, the appendix was removed after animal sacrifice, DNA was extracted, and analysis was performed using Shotgun metagenome sequencing. The extracted DNA was subjected to adapter ligation using the Truseq Nano DNA prep kit for sequencing, and then 8 cycles of PCR were performed to create a library. […] Using Trimmomatic v0.39 (AM Bolger, M Lohse, B Usadel, 2014) for raw reads, removal of low-quality reads and adapters was followed, and in order to eliminate PhiX sequences added during sequencing, trimmed reads were aligned to the PhiX reference genome (NC_001422.1) using BWA v0.7.17-r1188 (Li, Heng, 2013) and then removed with SAMtools v1.15.1 (Li, Heng, et al., 2009). […]

[2] = tested on: C57BL/6J mice; assay: Biochemical analysis of serum in dexamethasone-induced muscular atrophy mice; assay type: in vivo; conditions: oxymetholone 50 mg/kg oral 8 weeks, DEX mice
Description: as §1
After sacrificing the mice, blood was drawn from the heart and immediately centrifuged (3,000×g, 10 min, 4° C.) to separate the plasma. Creatine phosphokinase (CPK), lactate dehydrogenase (LDH), aspartate aminotransferase (AST), alanine aminotransferase (ALT), and blood urea nitrogen (BUN) were measured using a chemical analyzer (Fuji DRI-CHEM 3500i, Fuji Photo Film, Ltd., Tokyo, Japan).

[3] = tested on: C57BL/6J mice; assay: Body weight and body composition (DEXA) in dexamethasone-induced muscular atrophy mice; assay type: in vivo; conditions: week 7, oral; KLP-KM2 900 and 1800 mg/kg, OXM 50 mg/kg; vs DEX group
Description: as §1
Dual energy X-ray absorptiometry (DEXA; Medikors, Seongnam, Korea) was used at week 7 before the sacrifice of experimental animals to measure the body composition of mice, followed by analysis on the changes in muscle mass relative to the body weight.

`C[C@]12C/C(=C/O)C(=O)C[C@@H]1CC[C@@H]1[C@@H]2CC[C@@]2(C)[C@H]1CC[C@]2(C)O` [OXM, oxymetholone] was tested, and the “proportion of Akkermansia” value [1] was “significantly reduced”, the ALT [2] was 43.75 ± 7.96 ^a U/L and the AST [2] was 58.88 ± 11.73 ^a U/L. The BUN [2] was 24.74 ± 1.47 ^a mg/dL, the CPK [2] was 99.13 ± 35.13 ^b U/L and the LDH [2] was 211.38 ± 46.99 ^b U/L. The “muscle mass to the total body weight (DEXA)” value [3] was “relatively significant increase compared to the DEX group”.
